{"source": "patent US20140094505A1", "about": "“BIOMARKERS FOR ASSESSING TREATMENT OF SIALIC ACID DEFICIENCY DISEASES AND CONDITIONS” (Ultragenyx Pharmaceutical Inc., priority 2012, published 2014)", "system": "serum biomarkers (SAT biomarkers)", "test": "Phase 2: change (delta) in serum biomarker levels between week 0 and week 24 per dosage group (placebo, 3 g/day, 6 g/day), Human Discovery MAP250+ v2.0", "format": "in vivo", "design": "key to overall trend, Epithelial-Derived Neutrophil-Activating Protein 78 (ENA-78) / overall trend, Lactoylglutathione lyase (LGL) / overall trend, Latency-Associated Peptide of Transforming Growth Factor beta 1 (LAP TGF-b1) / overall trend, Macrophage Colony-Stimulating Factor 1 (M-CSF) / overall trend, Matrix Metalloproteinase-9, total (MMP-9, total) / overall trend, Myoglobin / overall trend, Neuronal Cell Adhesion Molecule (Nr-CAM) / overall trend, Plasminogen Activator Inhibitor 1 (PAI-1) / overall trend, Receptor tyrosine-protein kinase erbB-3 (ErbB3) / overall trend, Vascular Endothelial Growth Factor C (VEGF-C) / overall trend, Chromogranin-A (CgA): normalization: level moved toward normal level and the change in 6 g/day group was larger compared to placebo; stabilization: level might still move away from normal level but at a slower rate in 6 g/day group compared to placebo", "details": "HIBM patients", "procedure": "Forty-seven (47) HIBM patient serum samples collected at week 24 from phase 2 study were tested using the Human Discovery MAP250+ v2.0 quantitative immunoassay system developed by Myriad RBM. The results were compared to the serum samples of the same 47 HIBM patients collected at week 0 (baseline) which were conducted earlier with the same immunoassay system.\nPatients were unblinded and the results were organized into the 3 assigned dosage groups, placebo (n=14), 3 g/day (n=17) and 6 g/day (n=14). The major focus of the analysis was 1) to assess changes (delta, Δ) in levels of analytes between baseline and week 24 in each dosage group, 2) whether the changes correlate to dosage levels.\nAnalytes were excluded from analysis if […] of the HIBM patient samples were below least detectable dose (LDD). Within each dosage group, individual values with >5× difference to the mean of the dosage group were considered as outliers and thus removed from analysis.\nUpon treatment, levels of these analytes show an overall trend of either stabilization or normalization. […] For example, LAP TGF-b1 is an example of biomarker showing trend of normalization when the baseline level in HIBM patients is higher than normal controls, see FIG. 2. NCAM is another example of biomarker showing trend of normalization when the baseline level in HIBM patients is lower than normal controls, see FIG. 3.", "data": [{"molecule": "CC(=O)N[C@H]1[C@H]([C@H](O)[C@H](O)CO)OC(O)(C(=O)O)C[C@@H]1O", "note": "(stereo partly drawn) [Sialic Acid, 5-N-acetylneuraminic acid]", "values": [{"measurement": "average Δweek 0-24 (3 g/day), Chromogranin-A (CgA)", "setting": "3 g/day, week 0 to week 24", "result": 64.00, "unit": "ng/mL"}, {"measurement": "average Δweek 0-24 (3 g/day), Epithelial-Derived Neutrophil-Activating Protein 78 (ENA-78)", "setting": "3 g/day, week 0 to week 24", "result": -0.26, "unit": "ng/mL"}, {"measurement": "average Δweek 0-24 (3 g/day), Lactoylglutathione lyase (LGL)", "setting": "3 g/day, week 0 to week 24", "result": 0.25, "unit": "ng/mL"}, {"measurement": "average Δweek 0-24 (3 g/day), Latency-Associated Peptide of Transforming Growth Factor beta 1 (LAP TGF-b1)", "setting": "3 g/day, week 0 to week 24", "result": -0.44, "unit": "ng/mL"}, {"measurement": "average Δweek 0-24 (3 g/day), Macrophage Colony-Stimulating Factor 1 (M-CSF)", "setting": "3 g/day, week 0 to week 24", "result": 0.10, "unit": "ng/mL"}, {"measurement": "average Δweek 0-24 (3 g/day), Matrix Metalloproteinase-9, total (MMP-9, total)", "setting": "3 g/day, week 0 to week 24", "result": 449.18, "unit": "ng/mL"}, {"measurement": "average Δweek 0-24 (3 g/day), Myoglobin", "setting": "3 g/day, week 0 to week 24", "result": -48.88, "unit": "ng/mL"}, {"measurement": "average Δweek 0-24 (3 g/day), Neuronal Cell Adhesion Molecule (Nr-CAM)", "setting": "3 g/day, week 0 to week 24", "result": -0.07, "unit": "ng/mL"}, {"measurement": "average Δweek 0-24 (3 g/day), Plasminogen Activator Inhibitor 1 (PAI-1)", "setting": "3 g/day, week 0 to week 24", "result": 0.82, "unit": "ng/mL"}, {"measurement": "average Δweek 0-24 (3 g/day), Receptor tyrosine-protein kinase erbB-3 (ErbB3)", "setting": "3 g/day, week 0 to week 24", "result": -0.28, "unit": "ng/mL"}, {"measurement": "average Δweek 0-24 (3 g/day), Vascular Endothelial Growth Factor C (VEGF-C)", "setting": "3 g/day, week 0 to week 24", "result": 1.35, "unit": "ng/mL"}, {"measurement": "overall trend, Chromogranin-A (CgA)", "setting": "6 g/day vs placebo, week 24", "result": "stabilization"}, {"measurement": "overall trend, Epithelial-Derived Neutrophil-Activating Protein 78 (ENA-78)", "setting": "6 g/day vs placebo, week 24", "result": "normalization"}, {"measurement": "overall trend, Lactoylglutathione lyase (LGL)", "setting": "6 g/day vs placebo, week 24", "result": "normalization"}, {"measurement": "overall trend, Latency-Associated Peptide of Transforming Growth Factor beta 1 (LAP TGF-b1)", "setting": "6 g/day vs placebo, week 24", "result": "normalization"}, {"measurement": "overall trend, Macrophage Colony-Stimulating Factor 1 (M-CSF)", "setting": "6 g/day vs placebo, week 24", "result": "stabilization"}, {"measurement": "overall trend, Matrix Metalloproteinase-9, total (MMP-9, total)", "setting": "6 g/day vs placebo, week 24", "result": "stabilization"}, {"measurement": "overall trend, Myoglobin", "setting": "6 g/day vs placebo, week 24", "result": "normalization"}, {"measurement": "overall trend, Neuronal Cell Adhesion Molecule (Nr-CAM)", "setting": "6 g/day vs placebo, week 24", "result": "normalization"}, {"measurement": "overall trend, Plasminogen Activator Inhibitor 1 (PAI-1)", "setting": "6 g/day vs placebo, week 24", "result": "normalization"}, {"measurement": "overall trend, Receptor tyrosine-protein kinase erbB-3 (ErbB3)", "setting": "6 g/day vs placebo, week 24", "result": "stabilization"}, {"measurement": "overall trend, Vascular Endothelial Growth Factor C (VEGF-C)", "setting": "6 g/day vs placebo, week 24", "result": "stabilization"}, {"measurement": "average Δweek 0-24 (6 g/day), Chromogranin-A (CgA)", "setting": "6 g/day, week 0 to week 24", "result": 5.83, "unit": "ng/mL"}, {"measurement": "average Δweek 0-24 (6 g/day), Epithelial-Derived Neutrophil-Activating Protein 78 (ENA-78)", "setting": "6 g/day, week 0 to week 24", "result": -0.42, "unit": "ng/mL"}, {"measurement": "average Δweek 0-24 (6 g/day), Lactoylglutathione lyase (LGL)", "setting": "6 g/day, week 0 to week 24", "result": -8.27, "unit": "ng/mL"}, {"measurement": "average Δweek 0-24 (6 g/day), Latency-Associated Peptide of Transforming Growth Factor beta 1 (LAP TGF-b1)", "setting": "6 g/day, week 0 to week 24", "result": -1.00, "unit": "ng/mL"}, {"measurement": "average Δweek 0-24 (6 g/day), Macrophage Colony-Stimulating Factor 1 (M-CSF)", "setting": "6 g/day, week 0 to week 24", "result": 0.02, "unit": "ng/mL"}, {"measurement": "average Δweek 0-24 (6 g/day), Matrix Metalloproteinase-9, total (MMP-9, total)", "setting": "6 g/day, week 0 to week 24", "result": 444.64, "unit": "ng/mL"}, {"measurement": "average Δweek 0-24 (6 g/day), Myoglobin", "setting": "6 g/day, week 0 to week 24", "result": -38.00, "unit": "ng/mL"}, {"measurement": "average Δweek 0-24 (6 g/day), Neuronal Cell Adhesion Molecule (Nr-CAM)", "setting": "6 g/day, week 0 to week 24", "result": 0.02, "unit": "ng/mL"}, {"measurement": "average Δweek 0-24 (6 g/day), Plasminogen Activator Inhibitor 1 (PAI-1)", "setting": "6 g/day, week 0 to week 24", "result": -0.36, "unit": "ng/mL"}, {"measurement": "average Δweek 0-24 (6 g/day), Receptor tyrosine-protein kinase erbB-3 (ErbB3)", "setting": "6 g/day, week 0 to week 24", "result": -0.16, "unit": "ng/mL"}, {"measurement": "average Δweek 0-24 (6 g/day), Vascular Endothelial Growth Factor C (VEGF-C)", "setting": "6 g/day, week 0 to week 24", "result": 6.43, "unit": "ng/mL"}]}]}
